Biological target: Transient receptor potential cation channel subfamily V member 1 (Homo sapiens, UniProt Q8NER1)
Assay: FLIPR Assay
Method: All compounds were tested over a 12-point one-third-log concentration range. Compound stocks, 10 mM, were prepared in DMSO, and diluted serially across a 384-well plate using a Bravo BenchCel workstation (Agilent Technologies, Santa Clara, Calif.).

Transient receptor potential cation channel subfamily V member 1, sequence (Q8NER1 whole entry): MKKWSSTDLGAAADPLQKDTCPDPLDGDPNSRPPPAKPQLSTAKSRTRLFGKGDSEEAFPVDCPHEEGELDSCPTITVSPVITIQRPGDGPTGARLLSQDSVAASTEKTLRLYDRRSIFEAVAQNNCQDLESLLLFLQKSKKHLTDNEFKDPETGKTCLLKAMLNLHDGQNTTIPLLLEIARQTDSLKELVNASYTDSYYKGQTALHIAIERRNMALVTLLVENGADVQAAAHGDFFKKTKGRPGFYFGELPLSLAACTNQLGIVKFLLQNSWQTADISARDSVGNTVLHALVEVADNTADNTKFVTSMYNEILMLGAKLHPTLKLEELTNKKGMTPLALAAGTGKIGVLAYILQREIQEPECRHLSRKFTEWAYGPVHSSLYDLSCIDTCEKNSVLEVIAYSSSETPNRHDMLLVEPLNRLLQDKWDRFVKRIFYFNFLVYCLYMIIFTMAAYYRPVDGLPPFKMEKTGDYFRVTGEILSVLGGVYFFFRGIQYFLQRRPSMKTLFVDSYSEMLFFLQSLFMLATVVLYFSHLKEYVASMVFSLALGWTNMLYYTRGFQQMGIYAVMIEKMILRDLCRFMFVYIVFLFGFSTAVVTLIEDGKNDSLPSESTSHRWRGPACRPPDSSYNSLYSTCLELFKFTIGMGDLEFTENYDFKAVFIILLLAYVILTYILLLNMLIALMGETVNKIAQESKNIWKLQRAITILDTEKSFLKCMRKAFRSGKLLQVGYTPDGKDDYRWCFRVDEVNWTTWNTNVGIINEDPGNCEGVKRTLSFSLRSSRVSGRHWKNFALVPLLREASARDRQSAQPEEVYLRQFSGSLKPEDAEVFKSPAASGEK

Cc1cccnc1N1CC=C(C(=O)Nc2ccc(C(=O)NC(F)(F)F)cc2)CC1 [US8802711, L]
IC50: 100 nM
